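Cells were grown in 96-well plates and exposed to each compound for 48 hours at five concentrations; endpoints were interpolated linearly between bracketing concentrations, or set to the highest concentration if not reached. GI50 is the concentration that inhibits growth by half. TGI denotes the concentration required for complete inhibition of growth.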
Experiments:
Assay in all cases: growth of human tumour cells (NCI), 48 h
KM12 colon = test system: KM12 colon
SF-295 CNS = test system: SF-295 CNS
SNB-19 CNS = test system: SNB-19 CNS
NCI-H23 lung = test system: NCI-H23 lung
A549 NSCLC = test system: A549 NSCLC
M14 melanoma = test system: M14 melanoma
UO-31 renal = test system: UO-31 renal
MDA-MB-231 breast = test system: MDA-MB-231 breast
DU-145 prostate = test system: DU-145 prostate

| SMILES | TGI (KM12 colon) [µM] | TGI (SF-295 CNS) [µM] | TGI (SNB-19 CNS) [µM] | TGI (NCI-H23 lung) [µM] | TGI (A549 NSCLC) [µM] | TGI (M14 melanoma) [µM] | TGI (UO-31 renal) [µM] | TGI (MDA-MB-231 breast) [µM] | TGI (DU-145 prostate) [µM] | GI50 (SF-295 CNS) [µM] | GI50 (SNB-19 CNS) [µM] | GI50 (NCI-H23 lung) [µM] | GI50 (A549 NSCLC) [µM] | GI50 (M14 melanoma) [µM] | GI50 (UO-31 renal) [µM] |
| --- | --- | --- | --- | --- | --- | --- | --- | --- | --- | --- | --- | --- | --- | --- | --- |
| O=C1c2ccccc2C2C1N2C(=O)C(F)(F)F (centres undefined) | > 100 | > 100 | > 100 | > 100 | > 100 | > 100 | > 100 | – | – | – | – | – | – | – | – |
| Cc1ccccc1-n1c(=O)c2ncn(CCCl)c2n(-c2ccccc2C)c1=S | > 100 | > 100 | – | > 100 | > 100 | > 100 | > 100 | > 100 | > 100 | – | – | – | – | – | – |
| CC1C=C(CCCCCCCCCCCC[C@@H](O)[C@@H]2CC[C@@H]([C@@H]3CC[C@@H](C(O)CCCCCCCCCCCCC4=C[C@H](C)OC4=O)O3)O2)C(=O)O1 (some centres undefined) | > 100 | > 100 | > 100 | > 100 | > 100 | > 100 | > 100 | – | – | – | – | – | – | – | – |
| [N-]=[N+]=Nc1cc(=O)oc2ccccc12 | > 100 | > 100 | – | > 100 | > 100 | > 100 | > 100 | – | – | – | – | – | – | – | – |
| N#CN=C(N(Cc1ccccc1)Cc1ccccc1)N(Cc1ccccc1)Cc1ccccc1 | > 100 | > 100 | > 100 | – | > 100 | > 100 | > 100 | – | – | – | – | – | – | – | – |
| CC(N)Cc1ccc(C(=O)Cl)cc1 (centres undefined) | > 100 | > 100 | – | > 100 | > 100 | > 100 | – | – | – | – | – | – | – | – | – |
| O=C([O-])CC(=O)[O-].O=C([O-])CC(=O)[O-].[K+].[Pd+2] | – | > 100 | > 100 | > 100 | > 100 | > 100 | > 100 | – | – | > 100 | > 100 | > 100 | > 100 | > 100 | > 100 |
| CCN(CC)CCC(=O)Nc1ccc2c(c1)C(=O)c1ccc(NC(=O)CCN(CC)CC)cc1C2=O | 4.57 | 24 | 18.6 | 23.2 | 20.6 | 27.1 | > 100 | – | – | – | – | – | – | – | – |
| COc1ccc2c(=O)c(O)c(-c3ccc(OC)c(OC)c3)oc2c1 | – | 33.1 | > 100 | – | > 100 | > 100 | > 100 | > 100 | > 100 | – | – | – | – | – | – |
| COc1nc(N)c(C(=O)CCl)c(=O)n1C | 30.4 | 29.4 | 52 | – | 51.6 | – | 67 | – | – | – | – | – | – | – | – |
| COc1ccc(CNc2nc(NCc3ccc(OC)c(OC)c3)nc(NC3CCCCC3)n2)cc1 | 17 | > 100 | > 100 | 52.2 | > 100 | > 100 | > 100 | > 100 | > 100 | – | – | – | – | – | – |
| C[n+]1c2ccccc2c(/C=N\NS(=O)(=O)c2ccc(O)c(C(=O)O)c2)c2ccccc21 | > 100 | > 100 | > 100 | > 100 | > 100 | > 100 | > 100 | – | – | – | – | – | – | – | – |
| Cc1cccc2c(=O)cc(-c3ccccc3)[nH]c12 | – | 18.7 | > 100 | > 100 | > 100 | > 100 | > 100 | – | – | – | – | – | – | – | – |
| CC(C)CCCCCCCCCCCCC(=O)NCC(=O)NC1C(C)OC(Nc2ncnc3c2ncn3C)C(O)C1O (centres undefined) | > 100 | > 100 | > 31 | > 100 | > 100 | – | 16.9 | – | – | – | – | – | – | – | – |
| O=C1CCC23CC(C=CC=C12)n1c(=O)n(-c2ccccc2)c(=O)n13 (centres undefined) | > 100 | > 100 | > 100 | > 100 | > 100 | – | > 100 | – | – | – | – | – | – | – | – |
| CC(=O)NC1=C(NCCC(C)C)C(=O)c2ccccc2C1=O | > 50 | > 50 | > 50 | > 50 | > 50 | > 50 | > 50 | – | – | – | – | – | – | – | – |
| COc1cc([C@@H]2OCC3C(c4ccc5c(c4)OCO5)OCC32)cc(OC)c1OC (some centres undefined) | > 100 | > 100 | > 100 | > 100 | > 100 | > 100 | > 100 | – | – | – | – | – | – | – | – |
| O=C(Nc1ccc(C2=NCCN2)cc1)c1cncc(C(=O)Nc2ccc(C3=NCCN3)cc2)c1 | > 100 | > 100 | > 100 | > 100 | > 100 | – | > 100 | – | – | – | – | – | – | – | – |
| CCC[C@@H](O)C[C@@H]1CCC[C@H](C[C@@H](O)CC)N1C | > 100 | > 100 | > 100 | > 100 | > 100 | > 100 | > 100 | > 100 | > 100 | – | – | – | – | – | – |
| C[C@]12CC[C@H](O)CC1=CC[C@@H]1C2CC[C@]2(C)C(=O)N(N)C(=O)CC12 (some centres undefined) | > 100 | > 100 | > 100 | > 100 | > 100 | > 100 | > 100 | – | – | – | – | – | – | – | – |
| Cc1cn(C2CC(N(O)C(N)=O)C(CO)O2)c(=O)[nH]c1=O (centres undefined) | > 100 | > 100 | > 100 | > 100 | > 100 | > 100 | > 100 | > 100 | > 100 | – | – | – | – | – | – |

— PubChem BioAssay (NCI)
